These results are taken from BindingDB's records for patent US20240132480 (Cornell University, 2024).

For the assay, the target named is T1, Dihydrolipoyl dehydrogenase (Mycobacterium tuberculosis (strain ATCC 25618 / H37Rv), UniProt P9WHH9).
T1 sequence (P9WHH9 whole entry): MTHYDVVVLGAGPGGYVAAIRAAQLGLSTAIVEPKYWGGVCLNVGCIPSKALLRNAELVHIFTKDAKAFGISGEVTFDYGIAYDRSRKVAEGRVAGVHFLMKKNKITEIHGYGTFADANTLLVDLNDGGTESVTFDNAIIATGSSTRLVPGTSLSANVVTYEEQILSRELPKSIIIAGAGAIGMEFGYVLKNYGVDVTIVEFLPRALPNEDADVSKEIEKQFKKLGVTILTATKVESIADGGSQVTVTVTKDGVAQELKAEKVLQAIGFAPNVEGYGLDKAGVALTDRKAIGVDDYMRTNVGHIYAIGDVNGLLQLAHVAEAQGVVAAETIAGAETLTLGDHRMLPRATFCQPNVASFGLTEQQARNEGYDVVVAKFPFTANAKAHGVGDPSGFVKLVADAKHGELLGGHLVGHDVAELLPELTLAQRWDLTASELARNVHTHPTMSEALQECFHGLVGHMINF
Description: LPD Assay with 30 min preincubation.

A word on the IC50: it is the concentration that gives 50% inhibition. A higher IC50 goes with a need for much substance.

Each structure is given as a SMILES string.

`CC#CCNC(=O)CN(C)S(=O)(=O)c1cc(C)cc2cc(C#N)[nH]c12` [US20240132480, Example 210] returned a concentration for half-maximal inhibition (IC50) of 38 nM.
